The results in this text go back to patent US6989242B1, “Car receptors and related molecules and methods” (The General Hospital Coporation, priority 1992, dated 2006).

Series [1] deals with TR/CAR chimera. The experiment in a line: Cotransfection of TR/CAR chimera with T3RE reporter, effect of added ligands. The note with it: JEG3 cells, charcoal-treated serum. It counts as cell-based, human. The text has this: To study the function of the putative ligand binding domain of the orphan, a chimeric receptor consisting of the C-terminal D, E and F domains of CAR (i.e., approximately amino acids 76-172, 173-319, and 320-348 of the CAR sequence, respectively) fused to the N-terminal A/B and C domains of TRβ was generated (termed TR/CAR), along with a control hybrid with the A/B and C domains of TR and the D, E and F domain of the glucocorticoid receptor (TR/GR). Vectors expressing these chimeras or the intact TR were cotransfected into JEG3 cells (ATCC Accession No: HTB 36) with reporter plasmids containing T3REs (i.e., of sequence […]; SEQ ID NO: 3) or GREs (from the MMTV promoter as described in Chandler et al., Cell 33:489, 1989) upstream of a reporter gene whose expression could be assayed. Transfections were carried out in the presence of serum treated with activated charcoal to remove T3 as well as other low molecular weight hydrophobic compounds that could act as CAR ligands.

Series [2] deals with T1, CAR (Homo sapiens, UniProt Q14994).
T1 construct: expressed in transfected cells
T1 sequence (Q14994 1-348 isoform Q14994-2): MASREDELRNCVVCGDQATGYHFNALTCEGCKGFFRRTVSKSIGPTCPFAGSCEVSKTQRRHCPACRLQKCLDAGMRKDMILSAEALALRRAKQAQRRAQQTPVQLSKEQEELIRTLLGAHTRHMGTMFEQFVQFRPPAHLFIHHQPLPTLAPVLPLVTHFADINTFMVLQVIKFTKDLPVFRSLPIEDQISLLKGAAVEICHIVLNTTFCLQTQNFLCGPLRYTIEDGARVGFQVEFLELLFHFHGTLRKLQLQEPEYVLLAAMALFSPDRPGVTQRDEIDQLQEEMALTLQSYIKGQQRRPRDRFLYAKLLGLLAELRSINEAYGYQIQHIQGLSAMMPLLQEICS
The series is described as follows: Activation of the RARβ element by CAR in cotransfections, effect of protein kinase A/C pathway treatments. The class given is cell-based. Particulars: cotransfection. The text has this: Based on the constitutive activity of the TR/CAR chimera and the similarity of the DNA binding domain of CAR to other members of the superfamily, a number of response elements were screened for activation by the intact orphan in standard cotransfections. […] However, CAR did transactivate two wild type elements, the RAREs from the RARβ gene and the alcohol dehydrogenase (ADH) gene (i.e., […]; SEQ ID NO: 5). RAREs which were not transactivated by CAR included a potent up mutant version of the rat growth hormone gene T3RE/RARE (i.e., of sequence […]; SEQ ID NO:6; in tandem copies with the second copy inverted; described in Brent et al., Mol. Endocrinol. 3:1996, 1989) and the wild type version of the laminin T3RE/RARE (i.e., of sequence […]; SEQ ID NO: 8).
The activation of the RARβ element by CAR is not affected by several treatments that activate or inactivate signal transduction pathways mediated by protein kinases A or C. Thus, CAR activation was not altered by addition of dibutyryl cyclic AMP, by short or long term treatments with phorbol esters, or by cotransfections with vectors expressing the specific protein kinase A inhibitor peptide.

In series [3] the test system is βRARE. The series is described as follows: Transactivation of βRARE-TK luciferase reporter in cotransfected HepG2 cells. The class given is cell-based, human. Particulars: various cell types and conditions, no added ligand. An excerpt: To determine whether mCAR1 transactivated the βRARE in the absence of retinoids or any other exogenously added ligands, this construct was cotransfected with a luciferase reporter plasmid in which 3 copies of the βRARE were inserted upstream of the TK promoter. To carry out these experiments, HepG2 cells were maintained and transfected using calcium phosphate or DEAE dextran (Ausubel et al., Current Protocols in Molecular Biology, Greene Pub. Assoc.: New York, 1997). mCAR1 and mCAR2 expression vectors were generated by inserting appropriate fragments into the vector CDM8 (Seed, Nature 329:840-842, 1987), as previously described for hCAR. The luciferase reporter plasmid (Gulick et al., Proc. Natl. Acad. Sci. USA 91:11012-11016, 1994) contained three copies of the βRARE upstream of the TK promoter. The reporter plasmids with wild type and mutant versions of the RARβ2 promoter have been described (Moghal et al., Mol. Cell. Biol. 15:3945-3959, 1995). […]
For the TK reporter, pairs of 30 mm dishes were each transfected with 2 μg of reporter and pTKGH, and a total of 2 μg of mammalian expression vector. […] Transfections were carried out in media containing 10% charcoal stripped serum, and luciferase activity was determined using the Promega luciferase assay system as described by the manufacturer. […]
(Reporter assays use an easily measured gene product as a stand-in for the process of interest.)

Series [4] concerns the target T2, mCAR2 (splice variant lacking exon 8, 107 bp out-of-frame deletion; 6 new residues replace last 78 of mCAR1) (Mus musculus, UniProt O35627-2 O35627-2:1-286).
T2 sequence: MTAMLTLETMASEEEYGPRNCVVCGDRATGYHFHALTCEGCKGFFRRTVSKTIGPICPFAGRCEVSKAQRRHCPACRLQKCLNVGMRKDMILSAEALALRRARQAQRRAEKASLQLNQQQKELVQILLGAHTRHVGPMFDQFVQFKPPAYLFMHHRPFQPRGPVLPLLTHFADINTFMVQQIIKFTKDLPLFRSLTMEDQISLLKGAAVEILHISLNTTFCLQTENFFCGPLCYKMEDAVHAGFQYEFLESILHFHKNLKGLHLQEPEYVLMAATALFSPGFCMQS
The experiment in a line: EMSA; alone. The note with it: tags: GenBank variant of mCAR1. An excerpt:
(§1) FIG. 7 is a photograph showing DNA binding by mCAR1 and mCAR2. mCAR1, mCAR2, RXR, and RAR proteins were expressed by in vitro translation and used for electrophoretic mobility shift assays with a βRARE probe as indicated. "S" indicates competition with the βRARE oligonucleotide, and "NS" competition with a nonspecific oligonucleotide. Equivalent amounts of mCAR1, mCAR2, and RAR were used in the binding reactions, as determined by ^35S-methionine labeling.
(§2) For DNA binding studies, mCAR1, mCAR2, RAR, and RXR proteins were expressed using coupled in vitro transcription and translation (Promega, Inc.). Standard conditions were used for electrophoretic mobility shift assays with the DR-5 response element from the RARβ2 promoter (the βRARE) as the probe, as described for hCAR (MB67). In these experiments, mCAR1/RXR heterodimers bound with high affinity to the RARE from the RARβ2 isoform promoter (Sucov et al., Proc. Natl. Acad. Sci. USA 87:5392–5396, 1990; de The et al., Nature 343:177–180, 1990) (FIG. 7). […] This lack of mCAR2 binding was consistent with the absence of the C-terminal portion of the ligand/dimerization domain, which is essential for heterodimerization.

Series [5] deals with mCAR2 + RXR (Mus musculus, UniProt O35627-2;P19793 O35627-2:1-286,P19793:1-462). The series is described as follows: EMSA; with RXR.
Source text: as §1, §2
On the technique in general: Mobility shift assays separate free from complexed probe on a gel.

Series [6] addresses mCAR1 + RXR (Mus musculus, UniProt O35627;P19793 O35627:1-358,P19793:1-462). The series is described as follows: EMSA; high affinity; indistinguishable from RAR/RXR. The note with it: chain copies: heterodimer (stated).
Source text: as §1, §2

Series [7] concerns the target RAR + RXR (UniProt P10276;P19793 P10276:1-462,P19793:1-462). The series is described as follows: EMSA. Particulars: chain copies: heterodimer (stated).
Source text: as §1, §2

RAR + RXR, sequence (P10276 whole entry, chain 1 of 2): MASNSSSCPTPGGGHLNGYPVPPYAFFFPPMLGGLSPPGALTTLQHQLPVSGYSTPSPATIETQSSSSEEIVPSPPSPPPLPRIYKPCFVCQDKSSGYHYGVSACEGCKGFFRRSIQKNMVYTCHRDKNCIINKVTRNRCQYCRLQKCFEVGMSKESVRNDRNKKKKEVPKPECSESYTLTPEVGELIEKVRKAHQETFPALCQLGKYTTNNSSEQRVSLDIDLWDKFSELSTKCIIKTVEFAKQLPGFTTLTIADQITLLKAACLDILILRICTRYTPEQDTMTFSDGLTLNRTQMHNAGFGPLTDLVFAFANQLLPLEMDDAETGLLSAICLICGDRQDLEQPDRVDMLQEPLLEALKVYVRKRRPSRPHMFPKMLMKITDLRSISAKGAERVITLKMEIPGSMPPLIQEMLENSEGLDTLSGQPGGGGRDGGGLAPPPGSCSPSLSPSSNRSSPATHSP
RAR + RXR, sequence (P19793 whole entry, chain 2 of 2): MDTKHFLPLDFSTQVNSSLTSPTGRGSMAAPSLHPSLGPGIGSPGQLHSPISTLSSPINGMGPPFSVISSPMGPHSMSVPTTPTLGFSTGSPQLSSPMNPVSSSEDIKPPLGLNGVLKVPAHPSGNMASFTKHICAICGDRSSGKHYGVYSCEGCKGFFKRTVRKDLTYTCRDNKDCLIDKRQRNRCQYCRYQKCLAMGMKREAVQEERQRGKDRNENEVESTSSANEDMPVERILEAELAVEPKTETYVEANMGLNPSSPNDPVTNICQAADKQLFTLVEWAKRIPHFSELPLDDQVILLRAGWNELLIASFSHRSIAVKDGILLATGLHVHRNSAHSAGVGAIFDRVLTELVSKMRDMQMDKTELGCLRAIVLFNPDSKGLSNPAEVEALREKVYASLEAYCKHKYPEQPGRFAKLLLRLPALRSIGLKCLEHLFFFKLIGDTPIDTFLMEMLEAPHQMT
mCAR1 + RXR, sequence (P19793 whole entry, one chain of several): as the sequence (P19793 whole entry, chain 2 of 2) above
mCAR2 + RXR, sequence (P19793 whole entry, one chain of several): as the sequence (P19793 whole entry, chain 2 of 2) above

With `C[C@H](CCCC(C)(C)O)[C@H]1CC[C@H]2[C@@H]3CC=C4C[C@@H](O)CC[C@]4(C)[C@H]3CC[C@]12C` [25-hydroxy cholesterol], the “effect of added ligand on ligand-independent activation of T3RE reporter by TR/CAR chimera” value (shortened to “effect of added ligand”) in series [1] is “not altered”.

For the molecule `N[C@@H](Cc1cc(I)c(Oc2ccc(O)c(I)c2)c(I)c1)C(=O)O` [T3], the “effect of added ligand” value in series [1] was “not altered”.

Take `C[C@]12CC[C@@H]3c4ccc(O)cc4CC[C@H]3[C@@H]1CC[C@@H]2O` [astraddle]: the “effect of added ligand” value in series [1] is “not altered”.

As for `CCCC(=O)Nc1ncnc2c1ncn2[C@@H]1O[C@@H]2COP(=O)(O)O[C@H]2[C@H]1OC(=O)CCC` [dibutyryl cyclic AMP], the “effect on CAR activation of the RARβ element” value in series [2] is recorded as “not altered”.

For the molecule `CC1=C(/C=C/C(C)=C/C=C/C(C)=C/C(=O)O)C(C)(C)CCC1` [resinoid acid], the “effect of added ligand” value in series [1] is recorded as “not altered”.

In the case of `C[C@]12CC[C@H]3[C@@H](CCC4=CC(=O)CC[C@@]43C)[C@@H]1CC[C@@H]2O` [testosterone], the “effect of added ligand” value in series [1] is listed as “not altered”.

B1: hCAR: human CAR receptor, 348 amino acids, SEQ ID NO:10 (protein, listed as Homo sapiens)
chain: MASREDELRNCVVCGDQATGYHFNALTCEGCKGFFRRTVSKSIGPTCPFAGSCEVSKTQRRHCPACRLQKCLDAGMRKDMILSAEALALRRAKQAQRRAQQTPVQLSKEQEELIRTLLGAHTRHMGTMFEQFVQFRPPAHLFIHHQPLPTLAPVLPLVTHFADINTFMVLQVIKFTKDLPVFRSLPIEDQISLLKGAAVEICHIVLNTTFCLQTQNFLCGPLRYTIEDGARVGFQVEFLELLFHFHGTLRKLQLQEPEYVLLAAMALFSPDRPGVTQRDEIDQLQEEMALTLQSYIKGQQRRPRDRFLYAKLLGLLAELRSINEAYGYQIQHIQGLSAMMPLLQEICS
For B1, in series [3], the “transactivation of βRARE reporter” value is given as 20-100 fold.

B2: betaRARE (RARbeta2 promoter DR-5) (dsDNA)
DNA 1: GGGTAGGGTTCACCGAAAGTTCACTCG
DNA 2: CGAGTGAACTTTCGGTGAACCCTACCC
Turning to B2, the binding result is “no binding” in series [4], “no binding” in series [5], “binds” in series [6] and “binds” in series [7].
